Measured values as given in patent US20020137929A1, “1 - (3-heterocyclylphenyl) isothiourea, -isourea, -guanidine and -amidine herbicidal agents” (Intellectual Property Department, BASF Aktiengesellschaft, priority 1998, published 2002).

Key:
[1] = test system: CHEAL (Lambsquarters, Common); experiment: Postemergence herbicidal evaluation; assay type: in vivo, Chenopodium album; settings: postemergence
In short: (§1)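 Young plants, roughly two weeks from seeding, receive the active ingredient as a sprayed dispersion (acetone/water 50/50, 0.5% TWEEN 20) at 40 psi. Doses span about 0.0156 to 0.500 kg/ha. A visual score from 0 to 9 compares treated with control plants four to five weeks on.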

[2] = test system: CHEAL (Lambsquarters, Common); experiment: Preemergence herbicidal evaluation; assay type: in vivo, Chenopodium album; settings: rated 4-5 weeks after treatment
In short: (§2)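 In this greenhouse assay, monocot and dicot seeds are planted in soil and treated prior to emergence with an aqueous acetone spray (about 0.0156-0.500 kg/ha). Plants are assessed visually against control on a 0-9 scale after 4-5 weeks.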

ECHCG (Barnyardgrass) [3] = experiment: Postemergence herbicidal evaluation; assay type: in vivo, Echinochloa crus-galli; settings: postemergence
In short: as §1

CASOB (Sicklepod) = experiment: Postemergence herbicidal evaluation; assay type: in vivo, Cassia obtusifolia; settings: postemergence
In short: as §1

ORYSAT (Rice, Tebonnet) = experiment: Postemergence herbicidal evaluation; assay type: in vivo, Oryza sativa, (L.) Tebonnet; settings: postemergence
In short: as §1

SETVI (Foxtail, Green) [4] = experiment: Preemergence herbicidal evaluation; assay type: in vivo, Setaria viridis; settings: rated 4-5 weeks after treatment
In short: as §2

GALAP (Galium) = experiment: Postemergence herbicidal evaluation; assay type: in vivo, Galium aparine; settings: postemergence
In short: as §1

ECHCG (Barnyardgrass) [5] = experiment: Preemergence herbicidal evaluation; assay type: in vivo, Echinochloa crus-galli; settings: rated 4-5 weeks after treatment
In short: as §2

SETVI (Foxtail, Green) [6] = experiment: Postemergence herbicidal evaluation; assay type: in vivo, Setaria viridis; settings: postemergence
In short: as §1

[7] = test system: IPOHE (Morningglory, Ivyleaf); experiment: Preemergence herbicidal evaluation; assay type: in vivo, Ipomoea hederacea; settings: rated 4-5 weeks after treatment
In short: as §2

AMBEL (Ragweed, Common) = experiment: Postemergence herbicidal evaluation; assay type: in vivo, Ambrosia artemisifolia; settings: postemergence
In short: as §1

MOOVA (Monochoria) = experiment: Preemergence weed control under flooded paddy conditions; assay type: in vivo, Monochoria vaginalis; settings: rated 3-4 weeks after treatment
In short: (§3)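 First, seeds or propagules go into the top 0.5 cm of silt loam; next, water is held 1.5 to 3 cm over the soil; then compound (50/50 acetone/water) is pipetted into it at about 0.0313 to 0.500 kg/ha; finally plants are rated visually 0-9 after three to four weeks.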

CYPSE (Flatsedge) = experiment: as above; assay type: in vivo, Cyperus serotinus; settings: rated 3-4 weeks after treatment
In short: as §3

[8] = test system: ECHORC (Watergrass (Calif.)); experiment: as above; assay type: in vivo, Echinochloa oryzoides; settings: rated 3-4 weeks after treatment
In short: (§4)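 Flooded-pot preemergence screen with silt loam and seeds in the upper 0.5 cm. Dose about 0.0313 to 0.500 kg/ha, delivered into flood water; visual 0-9 score after 3 to 4 weeks.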

ZEAMX (Corn, Field) = experiment: Preemergence herbicidal evaluation; assay type: in vivo, Zea mays; settings: rated 4-5 weeks after treatment
In short: as §2

CYPIR (Rice Flatsedge) = experiment: Preemergence weed control under flooded paddy conditions; assay type: in vivo, Cyperus iria; settings: rated 3-4 weeks after treatment
In short: as §4

[9] = test system: GLXMAW (Soybean, Williams); experiment: Postemergence herbicidal evaluation; assay type: in vivo, Glycine max, (L.) Merr. cv Williams; settings: postemergence
In short: as §1

CCOC(=O)CN1C(=O)C(Cc2ccccc2OC(C)C(=O)O)S/C1=N/c1cc(-n2c(=O)cc(C(F)(F)F)n(C)c2=O)c(F)cc1Cl (centres unmarked) [Compound 114, 5-[o-(1-Carboxyethoxy)benzyl]-2-{{2-chloro-5-[3,6-dihydro-3-methyl-2,6-dioxo-4-(trifluoromethyl)-1(2H)-pyrimidinyl]-4-fluorophenyl}imino}-4-oxo-3-thiazolidineacetic acid, 3-ethyl ester]
herbicidal rating CHEAL ([1]; rate 0.0158 kg/ha): 7.0 | herbicidal rating CHEAL ([1]; rate 0.0315 kg/ha): 6.0 | herbicidal rating CHEAL ([1]; rate 0.0630 kg/ha): 9.0 | Preemergence herbicidal rating CHEAL ([2]; rate 0.0156 kg/ha): 9.0 | Preemergence herbicidal rating CHEAL ([2]; rate 0.0313 kg/ha): 9.0 | Preemergence herbicidal rating CHEAL ([2]; rate 0.0625 kg/ha): 7.0 | Preemergence herbicidal rating CHEAL ([2]; rate 0.1250 kg/ha): 9.0 | Preemergence herbicidal rating CHEAL ([2]; rate 0.2500 kg/ha): 9.0 | herbicidal rating ECHCG (ECHCG (Barnyardgrass) [3]; rate 0.0158 kg/ha): 0.0 | herbicidal rating ECHCG (ECHCG (Barnyardgrass) [3]; rate 0.0315 kg/ha): 1.0 | herbicidal rating ECHCG (ECHCG (Barnyardgrass) [3]; rate 0.0630 kg/ha): 4.0 | herbicidal rating CASOB (CASOB (Sicklepod); rate 0.0158 kg/ha): 1.0 | herbicidal rating CASOB (CASOB (Sicklepod); rate 0.0315 kg/ha): 1.0 | herbicidal rating CASOB (CASOB (Sicklepod); rate 0.0630 kg/ha): 1.0 | herbicidal rating ORYSAT (ORYSAT (Rice, Tebonnet); rate 0.0158 kg/ha): 1.5 | herbicidal rating ORYSAT (ORYSAT (Rice, Tebonnet); rate 0.0315 kg/ha): 2.0 | herbicidal rating ORYSAT (ORYSAT (Rice, Tebonnet); rate 0.0630 kg/ha): 3.0 | Preemergence herbicidal rating SETVI (SETVI (Foxtail, Green) [4]; rate 0.0156 kg/ha): 0.0 | Preemergence herbicidal rating SETVI (SETVI (Foxtail, Green) [4]; rate 0.0313 kg/ha): 0.0 | Preemergence herbicidal rating SETVI (SETVI (Foxtail, Green) [4]; rate 0.0625 kg/ha): 2.0 | Preemergence herbicidal rating SETVI (SETVI (Foxtail, Green) [4]; rate 0.1250 kg/ha): 7.0 | Preemergence herbicidal rating SETVI (SETVI (Foxtail, Green) [4]; rate 0.2500 kg/ha): 9.0 | herbicidal rating GALAP (GALAP (Galium); rate 0.0158 kg/ha): 1.0 | herbicidal rating GALAP (GALAP (Galium); rate 0.0315 kg/ha): 1.0 | herbicidal rating GALAP (GALAP (Galium); rate 0.0630 kg/ha): 3.0 | Preemergence herbicidal rating ECHCG (ECHCG (Barnyardgrass) [5]; rate 0.0156 kg/ha): 0.0 | Preemergence herbicidal rating ECHCG (ECHCG (Barnyardgrass) [5]; rate 0.0313 kg/ha): 0.0 | Preemergence herbicidal rating ECHCG (ECHCG (Barnyardgrass) [5]; rate 0.0625 kg/ha): 0.0 | Preemergence herbicidal rating ECHCG (ECHCG (Barnyardgrass) [5]; rate 0.1250 kg/ha): 2.0 | Preemergence herbicidal rating ECHCG (ECHCG (Barnyardgrass) [5]; rate 0.2500 kg/ha): 4.0 | herbicidal rating SETVI (SETVI (Foxtail, Green) [6]; rate 0.0158 kg/ha): 4.0 | herbicidal rating SETVI (SETVI (Foxtail, Green) [6]; rate 0.0315 kg/ha): 3.0 | herbicidal rating SETVI (SETVI (Foxtail, Green) [6]; rate 0.0630 kg/ha): 9.0 | Preemergence herbicidal rating IPOHE ([7]; rate 0.0156 kg/ha): 0.0 | Preemergence herbicidal rating IPOHE ([7]; rate 0.0313 kg/ha): 0.0 | Preemergence herbicidal rating IPOHE ([7]; rate 0.0625 kg/ha): 0.0 | Preemergence herbicidal rating IPOHE ([7]; rate 0.1250 kg/ha): 9.0 | Preemergence herbicidal rating IPOHE ([7]; rate 0.2500 kg/ha): 7.0 | herbicidal rating AMBEL (AMBEL (Ragweed, Common); rate 0.0158 kg/ha): 4.0 | herbicidal rating AMBEL (AMBEL (Ragweed, Common); rate 0.0315 kg/ha): 9.0 | herbicidal rating AMBEL (AMBEL (Ragweed, Common); rate 0.0630 kg/ha): 7.0 | MOOVA herbicidal effect rating (MOOVA (Monochoria); 0.0313 kg/ha): 9.0 | MOOVA herbicidal effect rating (MOOVA (Monochoria); 0.0625 kg/ha): 9.0 | MOOVA herbicidal effect rating (MOOVA (Monochoria); 0.1250 kg/ha): 9.0 | MOOVA herbicidal effect rating (MOOVA (Monochoria); 0.2500 kg/ha): 9.0 | CYPSE herbicidal effect rating (CYPSE (Flatsedge); 0.0313 kg/ha): 3.5 | CYPSE herbicidal effect rating (CYPSE (Flatsedge); 0.0625 kg/ha): 4.5 | CYPSE herbicidal effect rating (CYPSE (Flatsedge); 0.1250 kg/ha): 3.5 | CYPSE herbicidal effect rating (CYPSE (Flatsedge); 0.2500 kg/ha): 4.5 | ECHORC herbicidal effect rating ([8]; 0.0313 kg/ha): 6.0 | ECHORC herbicidal effect rating ([8]; 0.0625 kg/ha): 7.0 | ECHORC herbicidal effect rating ([8]; 0.1250 kg/ha): 7.0 | ECHORC herbicidal effect rating ([8]; 0.2500 kg/ha): 8.0 | Preemergence herbicidal rating ZEAMX (ZEAMX (Corn, Field); rate 0.0156 kg/ha): 0.0 | Preemergence herbicidal rating ZEAMX (ZEAMX (Corn, Field); rate 0.0313 kg/ha): 1.0 | Preemergence herbicidal rating ZEAMX (ZEAMX (Corn, Field); rate 0.0625 kg/ha): 1.0 | Preemergence herbicidal rating ZEAMX (ZEAMX (Corn, Field); rate 0.1250 kg/ha): 1.0 | Preemergence herbicidal rating ZEAMX (ZEAMX (Corn, Field); rate 0.2500 kg/ha): 2.0 | CYPIR herbicidal effect rating (CYPIR (Rice Flatsedge); 0.0313 kg/ha): 4.5 | CYPIR herbicidal effect rating (CYPIR (Rice Flatsedge); 0.0625 kg/ha): 6.5 | CYPIR herbicidal effect rating (CYPIR (Rice Flatsedge); 0.1250 kg/ha): 8.5 | CYPIR herbicidal effect rating (CYPIR (Rice Flatsedge); 0.2500 kg/ha): 9.0 | herbicidal rating GLXMAW ([9]; rate 0.0158 kg/ha): 6.0 | herbicidal rating GLXMAW ([9]; rate 0.0315 kg/ha): 5.5 | herbicidal rating GLXMAW ([9]; rate 0.0630 kg/ha): 6.5
